Consider four molecules from US8993574B2, “Pyrrole antifungal agents” (F2G Ltd, priority 2008, dated 2015).

Type in all cases: cell-based
Test [1] deals with Aspergillus flavus. Put plainly: MIC, YAG medium. Particulars: 24 h at 35° C, MIC banded into grades; for MIC: Aspergillus flavus, 24 h, read-out: MIC grade, A. flavus. The method in brief:
(§1)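 MICs (mg/L) derive from the lowest compound concentration suppressing spore outgrowth by >70% against a drug-free well, by OD 485 nm. Conditions: YAG medium, 1−2×10^4 cfu/mL, 24 h, 35° C, two-fold dilutions from 50 mg/L.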

Test [2] deals with Aspergillus fumigatus AF210. As to the kind of experiment: MIC, YAG medium. Particulars: 24 h at 35° C, MIC banded into grades; for MIC: Aspergillus fumigatus, read-out: MIC grade, A. fumigatus 210. The procedure, abridged:
as §1

Test [3] deals with Aspergillus fumigatus AF293. Put plainly: MIC, YAG medium. Particulars: 24 h at 35° C, MIC banded into grades; for MIC: Aspergillus fumigatus, read-out: MIC grade, A. fumigatus. The procedure, abridged: as §1
Test [4] concerns Aspergillus niger. Put plainly: MIC, YAG medium. Particulars: 24 h at 35° C, MIC banded into grades; for MIC: Aspergillus niger, read-out: MIC grade, A. niger. The method in brief: as §1
The subject of test [5] is Aspergillus terreus AT49. Put plainly: MIC, YAG medium. Particulars: 24 h at 35° C, MIC banded into grades; for MIC: Aspergillus terreus, read-out: MIC grade, A. terreus 49. The procedure, abridged: as §1
Test [6] deals with Aspergillus terreus AT4. As to the kind of experiment: MIC, YAG medium. Particulars: 24 h at 35° C, MIC banded into grades; for MIC: Aspergillus terreus, read-out: MIC grade, A. terreus. The procedure, abridged: as §1
The subject of test [7] is Aspergillus flavus. As to the kind of experiment: MIC, RPMI medium. Particulars: MIC banded into grades; for MIC: Aspergillus flavus, read-out: MIC grade, A. flavus. The procedure, abridged:
(§2)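 OD485-based endpoint after 24-48 h/35° C; MIC = lowest concentration, >80% inhibition relative to drug-free. RPMI/2% glucose/0.135 M MOPS pH 7.0; 1−2×10^4 cfu/mL; range 50-0.05 mg/L.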

In test [8] the test system is Aspergillus fumigatus AF210. Put plainly: MIC, RPMI medium. The settings on record: for MIC: Aspergillus fumigatus, AF210, MIC banded into grades, read-out: MIC grade, A. fumigatus 210; for MIC grade, A. fumigatus 210: MIC banded into grades. The method in brief: as §2
The subject of test [9] is Aspergillus fumigatus AF293. Put plainly: MIC, RPMI medium. Particulars: for MIC: Aspergillus fumigatus, AF293, MIC banded into grades, read-out: MIC grade, A. fumigatus; for MIC grade, A. fumigatus: MIC banded into grades. The method in brief: as §2
The test system of test [10] is Aspergillus niger. As to the kind of experiment: MIC, RPMI medium. The settings on record: MIC banded into grades; for MIC: Aspergillus niger, read-out: MIC grade, A. niger. The method in brief: as §2
The test system of test [11] is Aspergillus terreus AT49. As to the kind of experiment: MIC, RPMI medium. The settings on record: for MIC: Aspergillus terreus, AT49, MIC banded into grades, read-out: MIC grade, A. terreus 49; for MIC grade, A. terreus 49: MIC banded into grades. The method in brief:
as §2

Test [12] concerns Aspergillus terreus AT4. As to the kind of experiment: MIC, RPMI medium. Particulars: for MIC: Aspergillus terreus, AT4, MIC banded into grades, read-out: MIC grade, A. terreus; for MIC grade, A. terreus: MIC banded into grades. The method in brief:
as §2

The next test deals with Candida albicans. Put plainly: MIC, RPMI medium. The settings on record: 24-48 h at 35° C., >80% growth inhibition, banded into grades; for MIC: Candida albicans. The procedure, abridged:
as §2

The test system of the next test is Candida glabrata. As to the kind of experiment: MIC, RPMI medium. Particulars: 24-48 h at 35° C., >80% growth inhibition, banded into grades; for MIC: Nakaseomyces glabratus. The procedure, abridged:
as §2

The next test deals with Candida krusei. Put plainly: MIC, RPMI medium. The settings on record: 24-48 h at 35° C., >80% growth inhibition, banded into grades; for MIC: Pichia kudriavzevii. The procedure, abridged: as §2
The next test relates to Candida parapsilosis. As to the kind of experiment: MIC, RPMI medium. Particulars: 24-48 h at 35° C., >80% growth inhibition, banded into grades; for MIC: Lodderomyces parapsilosis. The procedure, abridged:
as §2

The next test deals with Candida tropicalis. Put plainly: MIC, RPMI medium. The settings on record: 24-48 h at 35° C., >80% growth inhibition, banded into grades; for MIC: Candida tropicalis. The procedure, abridged:
as §2

Converted amounts (≈) assume the structure as drawn.

The MIC is the lowest concentration that inhibits growth of the organism. With `Cc1cc(C)nc(N2CCN(c3ccc(NC(=O)C(=O)c4c(-c5ccccc5)ccn4CCN(C)C)cc3)CC2)c1` [Example 84, 2-[1-(2-Dimethylamino-ethyl)-3-phenyl-1H-pyrrol-2-yl]-N-{4-[4-(4,6-dimethyl-pyridin-2-yl)-piperazin-1-yl]-phenyl}-2-oxo-acetamide], the minimal inhibitory concentration (MIC) (with Aspergillus flavus [1]; in test [2]; in test [3]; in the test with Aspergillus niger [4]; with Aspergillus terreus AT49 [5]; with Aspergillus terreus AT4 [6]) was above 10 µg/mL in each case. Besides, the minimum inhibitory concentration (MIC) (with Aspergillus flavus [7]; in test [8]; in [9]; with Aspergillus niger [10]; with Aspergillus terreus AT49 [11]; in the test with Aspergillus terreus AT4 [12]) was above 10 µg/mL each time. In addition, the MIC with Candida albicans, against Candida glabrata, in the test on Candida krusei, against Candida parapsilosis and in the test with Candida tropicalis was below 1 µg/mL each time.

Take `CCOC(=O)Cn1c(C)cc(-c2ccccc2)c1C(=O)C(=O)Nc1ccc(N2CCN(c3cc(C)cc(C)n3)CC2)cc1` [Example 69, (2-{4-[4-(4,6-Dimethyl-pyridin-2-yl)-piperazin-1-yl]-phenylaminooxalyl}-5-methyl-3-phenyl-pyrrol-1-yl)-acetic acid ethyl ester]: the “MIC grade, A. flavus” value in the test with Aspergillus flavus [1] is 2 (A grade of 2 represents an MIC of from 1 to 10 mg/L); against Aspergillus flavus [7] it was 1 (a grade of 1 represents an MIC of greater than 10 mg/L). For the same molecule, the “MIC grade, A. fumigatus 210” value in test [2] and in test [8] was 3 (A grade of 3 represents an MIC of less than 1 mg/L) in each case. For the same molecule, the “MIC grade, A. fumigatus” value in test [3] and in test [9] was 3 (A grade of 3 represents an MIC of less than 1 mg/L) each time. Further, the “MIC grade, A. niger” value against Aspergillus niger [4] and against Aspergillus niger [10] was 3 (A grade of 3 represents an MIC of less than 1 mg/L) throughout. The figures for the “MIC grade, A. terreus 49” value in the test with Aspergillus terreus AT49 [5] and in the test on Aspergillus terreus AT49 [11] were 3 (A grade of 3 represents an MIC of less than 1 mg/L) and 2 (A grade of 2 represents an MIC of from 1 to 10 mg/L), respectively. The “MIC grade, A. terreus” value with Aspergillus terreus AT4 [6] is 3 (A grade of 3 represents an MIC of less than 1 mg/L); with Aspergillus terreus AT4 [12], 2 (A grade of 2 represents an MIC of from 1 to 10 mg/L). The “Candida MIC, C. albicans” value in the test with Candida albicans is given as 2 (A grade of 2 represents an MIC of from 1 to 10 mg/L). Moreover, the “Candida MIC, C. glabrata” value in the test with Candida glabrata was 3 (A grade of 3 represents an MIC of less than 1 mg/L). In addition, the “Candida MIC, C. krusei” value in the test on Candida krusei is listed as 2 (A grade of 2 represents an MIC of from 1 to 10 mg/L). Besides, the “Candida MIC, C. parapsilosis” value with Candida parapsilosis is listed as 3 (A grade of 3 represents an MIC of less than 1 mg/L). The “Candida MIC, C. tropicalis” value in the test with Candida tropicalis is recorded as 3 (A grade of 3 represents an MIC of less than 1 mg/L).

For `CCOC(=O)Cn1ccc(-c2ccccc2)c1C(=O)C(=O)Nc1ccc(N2CCN(c3cc(C)cc(C)n3)CC2)cc1` [Example 73, (2-{4-[4-(4,6-Dimethyl-pyridin-2-yl)-piperazin-1-yl]-phenylaminooxalyl}-3-phenyl-pyrrol-1-yl)-acetic acid ethyl ester], the “MIC grade, A. flavus” value against Aspergillus flavus [1] and in the test with Aspergillus flavus [7] was 1 (a grade of 1 represents an MIC of greater than 10 mg/L) in each case. Besides, the “MIC grade, A. fumigatus 210” value in test [2] and in [8] was 3 (A grade of 3 represents an MIC of less than 1 mg/L) each time. In addition, the “MIC grade, A. fumigatus” value in test [3] and in test [9] was 3 (A grade of 3 represents an MIC of less than 1 mg/L) in each case. For the same molecule, the “MIC grade, A. niger” value against Aspergillus niger [4] and with Aspergillus niger [10] was 3 (A grade of 3 represents an MIC of less than 1 mg/L) in each case. In addition, the “MIC grade, A. terreus 49” value is recorded as 2 (A grade of 2 represents an MIC of from 1 to 10 mg/L) with Aspergillus terreus AT49 [5] and 1 (a grade of 1 represents an MIC of greater than 10 mg/L) in the test on Aspergillus terreus AT49 [11]. Besides, the “MIC grade, A. terreus” value in the test with Aspergillus terreus AT4 [6] and against Aspergillus terreus AT4 [12] was 1 (a grade of 1 represents an MIC of greater than 10 mg/L) in each case. The “Candida MIC, C. albicans” value in the test with Candida albicans is reported as 2 (A grade of 2 represents an MIC of from 1 to 10 mg/L). Further, the “Candida MIC, C. glabrata” value with Candida glabrata was 3 (A grade of 3 represents an MIC of less than 1 mg/L). Besides, the “Candida MIC, C. krusei” value with Candida krusei is listed as 2 (A grade of 2 represents an MIC of from 1 to 10 mg/L). The “Candida MIC, C. parapsilosis” value in the test with Candida parapsilosis is 2 (A grade of 2 represents an MIC of from 1 to 10 mg/L). The “Candida MIC, C. tropicalis” value in the test on Candida tropicalis is reported as 3 (A grade of 3 represents an MIC of less than 1 mg/L).

Consider `COCCn1ccc(-c2ccccc2Cl)c1C(=O)C(=O)Nc1ccc(N2CCN(c3cc(C)cc(C)n3)CC2)cc1` [Example 57, 2-[3-(2-Chloro-phenyl)-1-(2-methoxy-ethyl)-1H-pyrrol-2-yl]-N-{4-[4-(4,6-dimethyl-pyridin-2-yl)-piperazin-1-yl]-phenyl}-2-oxo-acetamide], for which the MIC in the test with Aspergillus flavus [1] was 1 to 10 µg/mL (≈ 1.75 to 17.5 µM); in test [2] it was below 1 µg/mL; in test [3], below 1 µg/mL; in the test with Aspergillus niger [4] it was 1 to 10 µg/mL (≈ 1.75 to 17.5 µM); with Aspergillus terreus AT49 [5], below 1 µg/mL; in the test with Aspergillus terreus AT4 [6], 1 to 10 µg/mL (≈ 1.75 to 17.5 µM). In addition, the MIC is above 10 µg/mL in the test on Aspergillus flavus [7]; 1 to 10 µg/mL (≈ 1.75 to 17.5 µM) in test [8]; 1 to 10 µg/mL (≈ 1.75 to 17.5 µM) in test [9]; 1 to 10 µg/mL (≈ 1.75 to 17.5 µM) with Aspergillus niger [10]; 1 to 10 µg/mL (≈ 1.75 to 17.5 µM) with Aspergillus terreus AT49 [11]; 1 to 10 µg/mL (≈ 1.75 to 17.5 µM) in the test on Aspergillus terreus AT4 [12]. For the same molecule, the minimum inhibitory concentration (MIC) is 1 to 10 µg/mL (≈ 1.75 to 17.5 µM) against Candida albicans; below 1 µg/mL with Candida glabrata; below 1 µg/mL with Candida krusei; 1 to 10 µg/mL (≈ 1.75 to 17.5 µM) with Candida parapsilosis; 1 to 10 µg/mL (≈ 1.75 to 17.5 µM) in the test on Candida tropicalis.
